The values below come from US10252977B2, “Halogen-substituted phenoxyphenylamidines and the use thereof as fungicides” (priority 2015, dated 2019).

Where two headings read alike, the source gives them in different places. Where only a bound is given, the exact number is not on record here.

The subject of one data set is soy bean plants. The data set can be described thus: Plant compatibility test using soy bean plants. Type of data set: in vivo. Conditions: soy bean young plants sprayed at 1000 ppm, evaluated 6 days after application; 0% no damages, 100% totally damaged. How it is done: Plant Compatibility Test Using Soy Bean Plants • Solvent: 24.5 parts by weight of acetone • 24.5 parts by weight of dimethylacetamide • Emulsifier: 1 part by weight of alkylaryl polyglycol ether To produce a suitable preparation of active compound, 1 part by weight of active compound is mixed with the stated amounts of solvent and emulsifier, and the concentrate is diluted with water to the desired concentration. Young plants are sprayed with the preparation of active compound at the stated application rate. The plants are then placed in a greenhouse at approximately 21° C. and a relative atmospheric humidity of approximately 80%. The test is evaluated 6 days after application and comprises plant damages like leaf deformation, chlorosis, necrosis, shoot damage or stunting. The results are summarized in table V. 0% means no damages are observed, while 100% means that the plants are totally damaged.

Data set [1] in a line: Hydrolysis stability test in homogeneous aqueous solution. The class given is physicochemical. The note with it: 50° C., 24 hours, first order degradation assumed. The protocol:
The chemical stability towards hydrolysis of the phenylamidines described in the prior art is good but an improved stability may be an advantage during the preparation and formulation processes in a large scale. The improved stability towards hydrolysis was proven by a hydrolysis stability test as described below: To produce a suitable preparation of active compound for the hydrolysis stability test, a 1000 ppm stock solution (1 mg/mL) of active compound in acetonitrile is prepared. Three aliquots of 100 μL are pipetted into HPLC vials and diluted with 750 μL acetonitrile. In each vial 850 μL of the appropriate buffer solution (pH4, pH7 and pH9, CertiPUR, Fa. Merck) is added. The buffer containing HPLC vials are incubated in a heated sample tray at 50° C. for 24 hours. The amount A of the active compound is analyzed by HPLC (UV-peak areas at 210 nm) at eight points in time t: 0 min, 140 min, 350 min, 560 min, 770 min, 980 min, 1190 min, 1400 min. The half-life time (T1/2) of each active compound is calculated via linear regression by using the following equations (first order degradation assumed): In table III the results of the hydrolysis stability test are shown for the compounds (I-01), (I-02), (I-03), (I-04) and (I-05) at various pH-values. […] 337 known from WO2008/110278. […] This increased stability will be of advantage during the preparation and formulation processes in a large scale compared to known amidines. The data are to be seen merely by way of example and are not limiting for the purposes of the invention.

Data set [2] is described as follows: Photolysis stability test. Type of data set: physicochemical. The note with it: dried film in MTP, irradiated at 30° C. and 480 W/m^2, up to 24 h, first order degradation assumed. How it is done: The stability towards photolysis of the phenylamidines described in the prior art is good but an improved stability towards photolysis may be an advantage as it could offer a longer lasting efficacy when applied to plants by foliar application. The improved stability towards photolysis was proven by a […] stability test as described below:
To produce a suitable preparation of active compound for the photolysis stability test, a 1000 ppm stock solution (1 mg/mL) of active compound in acetonitrile is prepared. Aliquots of 25 μL of this stock solution are pipetted in three wells of a Bio-one microtiter plate (MTP) UVStar 96 (Fa. Greiner, Art. No. 655801). The MTP is dried overnight in the dark and then irradiated at 30° C. and 480 W/m^2 with a UV irradiation device SUNTEST XLS+ or SUNTEST CPS (Fa. Atlas). The amount A of the active compound is analyzed by HPLC (UV-peak areas at 210 nm) at five points in time t: 0 h, 2 h, 4 h, 6 h, 24 h by using the following method: 200 μL acetonitrile is added in the respective well of the MTP and the MTP is sealed with a Bio-one sealing foil, viewseal 80/140 mm (Fa. Greiner, Art. No. 676070). The MTPs are sonicated for 3 minutes and analysed by HPLC. The half-life time (T1/2) of each active compound is calculated via linear regression by using the following equations (first order degradation assumed): […]
In table IV the results of the photolysis stability test are shown for the compounds (I-01) and (I-02). […] This increased chemical stability towards photolysis will be of advantage as it will offer a longer lasting efficacy when applied to plants by foliar application compared to known amidines. The data are to be seen merely by way of example and are not limiting for the purposes of the invention.

A short description of data set [3]: Log P by HPLC on reversed phase columns (EEC directive 79/831 Annex V.A8). The class given is physicochemical. Conditions: LC-UV. How it is done:
Measurement of Log P values was performed according to EEC directive 79/831 Annex V.A8 by HPLC (High Performance Liquid Chromatography) on reversed phase columns with the following methods: • ^[a] Log P value is determined by measurement of LC-UV, in an acidic range, with 0.1% formic acid in water and acetonitrile as eluent (linear gradient from 10% acetonitrile to 95% acetonitrile). • [b] Log P value is determined by measurement of LC-UV, in a neutral range, with 0.001 molar ammonium acetate solution in water and acetonitrile as eluent (linear gradient from 10% acetonitrile to 95% acetonitrile). […] Lambda-max-values were determined using UV-spectra from 200 nm to 400 nm and the peak values of the chromatographic signals.

Another data set deals with Phakopsora pachyrhizi. Briefly: In vivo preventive test on Phakopsora (soybeans). The note with it: 7 days after inoculation. How it is done:
To produce a suitable preparation of active compound, 1 part by weight of active compound is mixed with the stated amounts of solvent and emulsifier, and the concentrate is diluted with water to the desired concentration. To test for preventive activity, young plants are sprayed with the preparation of active compound at the stated rate of application. After the spray coating has dried on, the plants are inoculated with an aqueous spore suspension of the causal agent of soybean rust (Phakopsora pachyrhizi) and stay for 24 h without light in an incubation cabinet at approximately 24° C. and a relative atmospheric humidity of 95%. The plants remain in the incubation cabinet at approximately 24° C. and a relative atmospheric humidity of approximately 80% and a day/night interval of 12 h.

The test system of a further data set is Puccinia recondita. Briefly: In vivo preventive test on Puccinia recondita (brown rust on wheat). Conditions: 500 ppm of active ingredient, 11 days after inoculation. How it is done: (§1) • Solvent: 5% by volume of Dimethyl sulfoxide • 10% by volume of Acetone • Emulsifier: 1 μl of Tween® 80 per mg of active ingredient
(§2) The active ingredients are made soluble and homogenized in a mixture of Dimethyl sulfoxide/Acetone//Tween® 80 and then diluted in water to the desired concentration.
(§3) The young plants of wheat are treated by spraying the active ingredient prepared as described above. Control plants are treated only with an aqueous solution of Acetone/Dimethyl sulfoxide/Tween® 80.
After 24 hours, the plants are contaminated by spraying the leaves with an aqueous suspension of Puccinia recondita spores. The contaminated wheat plants are incubated for 24 hours at 20° C. and at 100% relative humidity and then for 10 days at 20° C. and at 70-80% relative humidity.
The test is evaluated 11 days after the inoculation. 0% means an efficacy which corresponds to that of the control plants while an efficacy of 100% means that no disease is observed.

The next data set concerns Septoria tritici. The data set can be described thus: In vivo preventive test on Septoria tritici (leaf spot on wheat). Conditions: 500 ppm of active ingredient, 24 days after inoculation. How it is done: as §1, §2, §3
After 24 hours, the plants are contaminated by spraying the leaves with an aqueous suspension of Septoria tritici spores. The contaminated wheat plants are incubated for 72 hours at 18° C. and at 100% relative humidity and then for 21 days at 20° C. and at 90% relative humidity.
The test is evaluated 24 days after the inoculation. 0% means an efficacy which corresponds to that of the control plants while an efficacy of 100% means that no disease is observed.

A further data set deals with Pyrenophora teres. Briefly: In vivo preventive test on Pyrenophora teres (net blotch on barley). Conditions: 500 ppm of active ingredient, 14 days after inoculation. The protocol:
as §1, §2
The young plants of barley are treated by spraying the active ingredient prepared as described above. Control plants are treated only with an aqueous solution of Acetone/Dimethyl sulfoxide/Tween® 80.
After 24 hours, the plants are contaminated by spraying the leaves with an aqueous suspension of Pyrenophora teres spores. The contaminated barley plants are incubated for 48 hours at 20° C. and at 100% relative humidity and then for 12 days at 20° C. and at 70-80% relative humidity.
The test is evaluated 14 days after the inoculation. 0% means an efficacy which corresponds to that of the control plants while an efficacy of 100% means that no disease is observed.

The mark [4] stands for this setting: buffer pH 7/acetonitrile, read-out: T1/2 (pH 7) (converted).
Setting [5] is: buffer pH 9/acetonitrile, read-out: T1/2 (pH 9) (converted).
Where [6] appears, read: acidic range, 0.1% formic acid in water and acetonitrile as eluent, read-out: LogP [a].
Setting [7] is: neutral range, 0.001 molar ammonium acetate solution in water and acetonitrile as eluent, read-out: LogP [b].

`CCN(C)/C=N/c1cc(C)c(Oc2ccccc2)cc1C` [Compound no. 1 known from WO2008/110313, reference compound] gave a Necrosis in % with soy bean plants of 90%. Also, the half-life at 58.8 µg/mL in data set [1] (setting [4]) was 24 h; in data set [1] (setting [5]) it was 16 h. Also, the half-life in data set [2] is 10 h.

As to `CCN(C)/C=N/c1cc(Cl)c(Oc2ccccc2F)cc1C` [Example I-01, N′-[5-chloro-4-(2-fluorophenoxy)-2-methylphenyl]-N-ethyl-N-methylimidoformamide], the results for the chromatographic logP in data set [3] (setting [6]) and in data set [3] (setting [7]) were 1.64 and 4.56, respectively. For the same compound, the Necrosis in % in the data set on soy bean plants worked out at 50%. The figures for the half-life at 58.8 µg/mL in data set [1] (setting [4]) and in data set [1] (setting [5]) were 67 h and 60 h, respectively. Moreover, the efficacy result with Phakopsora pachyrhizi (100 ppm of active ingredient) is listed as “at least 70%”. In data set [2], this compound had a half-life of 32 h.

As for `Cc1cc(Oc2ccccc2Br)c(C(F)(F)F)cc1[N+](=O)[O-]` [VI-05, 1-(2-bromophenoxy)-5-methyl-4-nitro-2-(trifluoromethyl)benzene], the chromatographic logP in data set [3] (setting [6]) is 4.64.

`CCN(C)C=Nc1cc(Cl)c(Oc2ccccc2Br)cc1C` [Example I-02, N′-[4-(2-bromophenoxy)-5-chloro-2-methylphenyl]-N-ethyl-N-methylimidoformamide]: the efficacy entry in the data set with Puccinia recondita, in the data set on Phakopsora pachyrhizi (10 ppm of active ingredient), in the data set with Septoria tritici and in the data set on Pyrenophora teres was “at least 70%” in each case. Further, the chromatographic logP in data set [3] (setting [6]) stood at 1.86; in data set [3] (setting [7]), 5.13. The half-life at 58.8 µg/mL in data set [1] (setting [4]) is 70 h; in data set [1] (setting [5]) it was 64 h. The same compound yielded a half-life in data set [2] of more than 200 h.

As for `CCN(C)C=Nc1cc(C(F)(F)F)c(Oc2ccccc2Br)cc1C` [Example I-05, N′-[4-(2-bromophenoxy)-2-methyl-5-(trifluoromethyl)phenyl]-N-ethyl-N-methylimidoformamide], the chromatographic logP in data set [3] (setting [6]) was determined as 1.9. The figures for the half-life at 58.8 µg/mL in data set [1] (setting [4]) and in data set [1] (setting [5]) were 80 h and 66 h, respectively. Besides, the half-life in data set [2] is more than 200 h.

Regarding `CCN(C)C=Nc1cc(Cl)c(Oc2ccccc2I)cc1C` [Example I-06, N′-[5-chloro-4-(2-iodophenoxy)-2-methylphenyl]-N-ethyl-N-methylimidoformamide], the chromatographic logP in data set [3] (setting [6]) worked out at 1.81. The results for the half-life at 58.8 µg/mL in data set [1] (setting [4]) and in data set [1] (setting [5]) were 61 h and 55 h, respectively. In addition, the half-life in data set [2] is 34 h.

Consider `Cc1cc(Oc2ccccc2Cl)c(Cl)cc1[N+](=O)[O-]` [VI-03, 1-chloro-2-(2-chlorophenoxy)-4-methyl-5-nitrobenzene], for which the chromatographic logP in data set [3] (setting [6]) was 4.51.

In the case of `CCN(C)C=Nc1cc(Cl)c(Oc2ccccc2Cl)cc1C` [Example I-03, N′-[5-chloro-4-(2-chlorophenoxy)-2-methylphenyl]-N-ethyl-N-methylimidoformamide], the chromatographic logP in data set [3] (setting [6]) was found to be 1.55. Also, the half-life at 58.8 µg/mL in data set [1] (setting [4]) is 63 h; in data set [1] (setting [5]) it was 53 h. Also, the half-life in data set [2] is 59 h.

Consider `Cc1cc(Oc2ccccc2Br)c(C(F)(F)F)cc1N` [VIII-05, 4-(2-bromophenoxy)-2-methyl-5-(trifluoromethyl) aniline], for which, in data set [3] (setting [6]), the chromatographic logP stood at 3.68.

As to `Cc1cc(Oc2ccccc2Cl)c(Cl)cc1N` [VIII-03, 5-chloro-4-(2-chlorophenoxy)-2-methylaniline], in data set [3] (setting [6]), the chromatographic logP is 3.37.

As for `CCN(C)C=Nc1cc(C(F)(F)F)c(Oc2ccccc2F)cc1C` [Example I-04, N-ethyl-N′-[4-(2-fluorophenoxy)-2-methyl-5-(trifluoromethyl)phenyl]-N-methylimidoformamide], the chromatographic logP in data set [3] (setting [6]) was determined as 1.72. Moreover, the half-life at 58.8 µg/mL in data set [1] (setting [4]) was 83 h; in data set [1] (setting [5]), 74 h. For the same compound, the half-life in data set [2] was more than 200 h.

For `CCN(C)/C=N/c1cc(C)c(Oc2ccccc2F)cc1C` [reference compound], the Necrosis in % in the data set with soy bean plants turned out to be 90%. For the same compound, the values for the half-life at 58.8 µg/mL in data set [1] (setting [4]) and in data set [1] (setting [5]) were 25 h and 17 h, respectively.
